Experimental data from publication PMC6543810, “Computational Identification of Novel Kir6 Channel Inhibitors” (Frontiers in Pharmacology, 2019).
Read-outs that look alike come from different tables or passages of the source.

How the values were obtained:
Kir6.2 C166S/SUR2A = biological target: T1, Kir6.2 C166S/SUR2A (Rattus norvegicus, UniProt P70673, C166S); assay: Inside-out patch clamp, Cantú mutant C166S Kir6.2 with SUR2A; assay type: cell-based; conditions: C166S Kir6.2 (homolog of Kir6.1 C176S)/SUR2A, outward current
T1 construct: expressed in transfected cells; host or cells: HEK293T
Procedure: (§1) Inside-out patch clamp electrophysiology was performed as described previously ([Harakalova et al., 2012]). In short, HEK293T cells were cultured on 10 mm glass coverslips and transfected with 0.16 μg of rat pCMV6-Kir6.2, 0.16 μg of rat pCMV6-SUR2A and 0.08 μg of pEGFP1 expression constructs. Measurements were performed using an AxoPatch 200B amplifier controlled by pClamp 9 software (Molecular Devices) at 22°C using a ramp protocol ranging from −100 to +100 mV in 5 s from a holding potential of −40 mV. The sampling rate was 50 kHz, filter frequency was 2 kHz. Bath solution contained 131 mM KCl, 1 mM EGTA, 7.2 mM K2HPO4, 2.8 mM KH2PO4, 1 mM MgCl2, and pH 7.20/KOH. The pipette solution contained 145 mM KCl, 1 mM CaCl2, 1 mM MgCl2, 5 mM HEPES, and pH 7.40/KOH. Pipette resistance was 1.5–3 MΩ. […] All measurements were performed within a timeframe of 8–10 min. Fractional block at −80 and +50 mV was determined by dividing current levels obtained with test compound containing solutions by current levels of control traces recorded in the absence of test compound. Statistics (unpaired Students t-tests (two tailed)) were performed using Kaleidagraph 4.0 software (Synergy Software, Reading, PA, United States).
(§2) Travoprost (MedChemExpress, Monmouth Junction, NJ, United States) was dissolved in DMSO at 10 mM. Test compounds were diluted in bath solution at the indicated concentrations before the start of measurements.

Kir6.2/SUR2A = biological target: T2, Kir6.2/SUR2A (Rattus norvegicus, UniProt P70673); assay: Inside-out patch clamp on HEK293T excised membrane patches, WT Kir6.2/SUR2A; assay type: cell-based; conditions: for IC50: inside-out patch, HEK293T; for Hill coefficient (outward): outward current
T2 construct: expressed in transfected cells; host or cells: HEK293T
Procedure: as §1, §2

Kir6.2/SUR2A S1020P = biological target: T3, Kir6.2/SUR2A S1020P (Rattus norvegicus, UniProt P70673); assay: Inside-out patch clamp, Cantú mutant S1020P SUR2A with Kir6.2; assay type: cell-based; conditions: S1020P SUR2A/Kir6.2, outward current
T3 construct: expressed in transfected cells; host or cells: HEK293T
Procedure: as §1, §2

[1] = design: method as in Cox et al., 2000; conditions: used to treat type II diabetes mellitus; ref Cox et al., 2000; cited from earlier work
[2] = tested on: Kir6.2/SURx (pancreatic and heart) channels; design: method as in Yu et al., 2012; conditions: ref Yu et al., 2012; cited from earlier work
vascular Kir6.1/SUR2B = tested on: vascular Kir6.1/SUR2B; design: method as in Yu et al., 2011; conditions: ref Yu et al., 2011; cited from earlier work
Kir1.1 = tested on: Kir1.1; design: method as in Yu et al. (2012); conditions: ref Yu et al. (2012); cited from earlier work
Kir2.1 = tested on: Kir2.1; design: method as in Yu et al. (2012); conditions: ref Yu et al. (2012); cited from earlier work
Kir4.1 = tested on: Kir4.1; design: method as in Yu et al. (2012); conditions: ref Yu et al. (2012); cited from earlier work
[3] = outward current component (+50 mV), mean ± SEM, read-out: IC50 outward

T1 sequence (P70673 whole entry C166S): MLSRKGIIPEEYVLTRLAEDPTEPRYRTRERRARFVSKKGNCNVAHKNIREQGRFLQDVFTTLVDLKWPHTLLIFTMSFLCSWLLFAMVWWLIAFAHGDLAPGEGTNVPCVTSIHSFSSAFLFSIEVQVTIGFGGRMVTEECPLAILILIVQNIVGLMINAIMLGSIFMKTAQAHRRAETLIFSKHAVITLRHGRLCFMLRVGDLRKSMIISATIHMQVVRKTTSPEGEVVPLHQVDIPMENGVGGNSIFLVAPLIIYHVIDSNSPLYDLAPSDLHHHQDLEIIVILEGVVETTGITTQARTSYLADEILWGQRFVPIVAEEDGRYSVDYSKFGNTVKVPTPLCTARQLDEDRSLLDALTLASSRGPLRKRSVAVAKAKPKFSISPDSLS
T1 sequence (Q63563 whole entry partner): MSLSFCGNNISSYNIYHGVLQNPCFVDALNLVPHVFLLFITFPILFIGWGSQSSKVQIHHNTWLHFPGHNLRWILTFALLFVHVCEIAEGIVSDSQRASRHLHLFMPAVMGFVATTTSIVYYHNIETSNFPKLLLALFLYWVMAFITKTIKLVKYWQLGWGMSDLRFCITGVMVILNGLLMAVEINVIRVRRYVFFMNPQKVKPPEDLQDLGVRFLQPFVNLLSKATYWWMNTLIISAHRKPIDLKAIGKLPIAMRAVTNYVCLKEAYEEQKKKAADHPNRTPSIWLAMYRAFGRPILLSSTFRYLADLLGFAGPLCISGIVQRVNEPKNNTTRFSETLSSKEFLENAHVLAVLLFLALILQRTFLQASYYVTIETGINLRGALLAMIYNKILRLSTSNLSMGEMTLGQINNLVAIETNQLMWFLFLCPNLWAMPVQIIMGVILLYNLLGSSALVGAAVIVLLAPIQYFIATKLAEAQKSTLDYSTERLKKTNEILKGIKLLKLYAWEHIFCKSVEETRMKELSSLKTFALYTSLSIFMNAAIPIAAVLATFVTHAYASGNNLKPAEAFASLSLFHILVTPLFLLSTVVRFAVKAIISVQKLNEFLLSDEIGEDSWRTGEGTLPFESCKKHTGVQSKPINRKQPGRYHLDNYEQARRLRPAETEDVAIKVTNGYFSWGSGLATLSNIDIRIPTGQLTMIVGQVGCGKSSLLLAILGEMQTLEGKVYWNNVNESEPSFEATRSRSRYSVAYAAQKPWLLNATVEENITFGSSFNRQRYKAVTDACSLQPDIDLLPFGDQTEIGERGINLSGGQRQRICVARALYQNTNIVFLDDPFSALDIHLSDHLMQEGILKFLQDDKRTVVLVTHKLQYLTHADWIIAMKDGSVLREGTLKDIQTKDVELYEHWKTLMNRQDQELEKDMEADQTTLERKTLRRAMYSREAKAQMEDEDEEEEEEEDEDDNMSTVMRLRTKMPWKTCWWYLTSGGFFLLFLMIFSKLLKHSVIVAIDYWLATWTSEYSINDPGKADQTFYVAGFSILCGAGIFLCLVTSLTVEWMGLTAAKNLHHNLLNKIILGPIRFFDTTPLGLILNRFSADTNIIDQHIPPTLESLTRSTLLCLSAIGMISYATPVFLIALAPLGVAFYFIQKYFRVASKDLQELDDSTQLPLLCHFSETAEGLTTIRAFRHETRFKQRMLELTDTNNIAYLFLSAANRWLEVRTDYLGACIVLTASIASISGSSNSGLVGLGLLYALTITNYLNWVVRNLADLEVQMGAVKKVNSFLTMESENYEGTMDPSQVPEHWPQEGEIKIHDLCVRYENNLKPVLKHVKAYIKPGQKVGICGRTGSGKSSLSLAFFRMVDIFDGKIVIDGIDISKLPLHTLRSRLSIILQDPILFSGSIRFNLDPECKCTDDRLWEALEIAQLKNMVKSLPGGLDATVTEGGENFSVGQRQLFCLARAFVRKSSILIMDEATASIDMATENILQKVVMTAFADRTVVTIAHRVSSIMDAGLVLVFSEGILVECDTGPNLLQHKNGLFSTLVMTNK
T3 sequence (P70673 whole entry, stated change not applied): as the sequence (P70673 whole entry C166S) above, with S166C counted along it
T3 sequence (Q63563 whole entry S1016P partner): as the sequence (Q63563 whole entry partner) above, with S1016P counted along it
T2 sequence (P70673 whole entry): as the sequence (P70673 whole entry C166S) above, with S166C counted along it
T2 sequence (Q63563 whole entry partner): as the sequence (Q63563 whole entry partner) above

| IC50 (Kir6.2 C166S/SUR2A) [µM] | IC50 (Kir6.2/SUR2A; inward current component (-80 mV), read-out: IC50 inward) [µM] | Hill coefficient (inward) (Kir6.2/SUR2A; inward current, Hill equation fit) | IC50 (Kir6.2/SUR2A; [3]) [µM] | Hill coefficient (outward) (Kir6.2/SUR2A; Hill equation fit) | IC50 (Kir6.2/SUR2A S1020P) [µM] | SMILES | plasma concentrations [1] [µM] | IC50 [2] [µM] | IC50 (vascular Kir6.1/SUR2B) [µM] | sensitivity of channel to drug (Kir1.1) | sensitivity of channel to drug (Kir2.1) | sensitivity of channel to drug (Kir4.1) |
| --- | --- | --- | --- | --- | --- | --- | --- | --- | --- | --- | --- | --- |
| 14.8 ± 2.16 | 2.3 ± 1.26 | 0.65 | 2.46 ± 0.52 | 0.71 | 11 ± 1.28 | CC(C)OC(=O)CCC/C=C\C[C@@H]1[C@@H](/C=C/[C@@H](O)COc2cccc(C(F)(F)F)c2)[C@H](O)C[C@@H]1O [Travoprost] |  |  |  |  |  |  |
| 41.2 ± 2.89 |  |  | 22.1 ± 2.47 | 0.89 | 29.5 ± 3.78 | CC(C)NCC(O)COc1ccc(CCOCC2CC2)cc1 (centres unmarked) [Betaxolol] |  |  |  |  |  |  |
| 34.9 ± 2.34 |  |  | 26 ± 1.49 |  | 25.4 ± 4.24 | CN(CCOc1ccc(CC2SC(=O)NC2=O)cc1)c1ccccn1 (centres unmarked) [RSG, 5-[[4-[2-[methyl(pyridin-2-yl)amino]ethoxy]phenyl]methyl]-1,3-thiazolidine-2,4-dione] | ~3 | 45 | 10 | insensitive | insensitive | insensitive |
| 10.4 ± 0.87 |  |  | 7.09 ± 0.45 | 0.86 | 6.77 ± 0.49 | CC(NCCc1ccc(O)cc1)C(O)c1ccc(O)cc1 (centres unmarked) [Ritodrine] |  |  |  |  |  |  |
